Where a SMILES comes first, the peptide text is derived from it. Bridges are numbered along the chain shown (N, C = ends).
What was measured:
[1] = target: T1, synMDMX (synthetic MDMX, amino acids 24-108 of the full length MDMX protein) (Homo sapiens, UniProt O15151); experiment: SPR-based competition binding assay, synMDMX vs immobilized 15-29p53; conditions: stoppin-1 relative to 15-29p53
T1 construct: synthetic MDMX—comprising amino acids 24-108 of the full length MDMX protein; made in house; host or cells: chemical synthesis (no expression host)
T1 sequence (O15151 24-108): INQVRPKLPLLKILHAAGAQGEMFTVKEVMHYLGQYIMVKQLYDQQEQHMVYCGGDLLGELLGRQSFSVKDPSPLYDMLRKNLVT
Protocol: Each curve is the mean of four independent measurements at 25° C. in 10 mM HEPES, 150 mM NaCl, 0.005% surfactant P20, pH 7.4. […] Specifically, ^(15-29)p53 was immobilized on a CM5 sensor chip for kinectic analysis of a fixed concentration of ^synMDM2 (50 nM) or ^synMDMX (100 nM) pre-incubated with varying concentrations of stoppin-1 at room temperature. ^(15-29)p53 was used as a control in the competition binding assay. […] To facilitate comparison, several other compounds were included in the panel: ^(15-29)p53, ^(17-28)p53, and Nutlin-3 (a racemic mixture of Nutlin-3a and Nutlin-3b).

synMDM2 = target: T2, synMDM2 (Homo sapiens, UniProt Q00987); experiment: Trp fluorescence spectroscopy on addition of synMDM2; format: binding
T2 construct: synthetic MDM2—comprising amino acids 25-109 of the full length MDM2 protein; made in house; host or cells: chemical synthesis (no expression host)
T2 sequence (Q00987 25-109): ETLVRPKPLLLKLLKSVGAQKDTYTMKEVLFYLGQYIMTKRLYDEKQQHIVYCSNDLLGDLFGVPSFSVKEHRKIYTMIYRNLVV
Description: Stoppin-1 was characterized using CD and fluorescence spectroscopy. […] The CD results are entirely consistent with the known structural features of BmBKTx1. As is the case with ^(15-29)p53, the only Trp residue engineered into stoppin-1 is fully solvent exposed in aqueous solution (buffer) as evidenced by the Trp fluorescence maximum (356 nm).
Stoppin-1 was derivatived by making five additional substitutions in its C-terminal region, resulting in a heavily cationic new peptide termed stoppin-2 of the following amino acid sequence: […] (SEQ ID NO:2). Specifically, Ser^18, Ser^19, Ile^23, Asn^24, and Ser^25 (BmBKTx1 numbering) were replaced with Arg, generating a miniprotein with eight cationic residues (including three existing Lys residues) clustered in the C-terminal β-hairpin region. Stoppin-2 was then chemically synthesized and oxidatively folded using procedures previously described herein. The correct folding of stoppin-2 was verified by disulfide mapping using trypsin/CNBr fragmentation coupled with LC-MS analysis. The interaction of stoppin-2 with MDM2/MDMX was characterized using fluorescence spectroscopy.

p53 mutated SW480 cells = experiment: Tumor cell killing, MTS OD and Trypan blue cell count, SW480; conditions: SW480, added daily for three days
Protocol: (§1) Nutlin-3, a known small molecule inhibitor of the p53-MDM2 interaction, was given at 10 μg/ml as a positive control. Briefly, HCT116 cells (10,000/well) were plated overnight in McCoy's 5A modified medium (1×) supplemented with 1% pen-strep and 10% heat inactivated FBS. SW480 cells (10,000/well) were plated overnight in DMEM 1× medium, 1% pen-strep and 10% heat inactivated FBS (all reagents were from GIBCO). Cells were treated the next day with the indicated compound and then OD and cell count assessed after 3 days (left column) or peptides were added every day for three day and then OD and cell count were assessed (right column). OD was measured with the MTS kit (Cell titer 96 aqueous non-radioactive cell proliferation assay, Promega). Trypan blue incorporation was used to determine number of cells alive and dead.

[2] = system: p53 wild type HCT116 cells; experiment: Tumor cell killing, MTS OD and Trypan blue cell count, HCT116; conditions: for reduction in cell number (Trypan blue cell count) / reduction in cell viability as measured by MTS OD: HCT116, single dose, peptides 100 μg/ml, Nutlin-3 10 μg/ml; for reduction in cell number (Trypan blue cell count): assessed after 3 days; for reduction in HCT116 cell count: HCT116, added daily for three days; for reduction in cell viability as measured by MTS OD: after 3 days
Protocol: as §1

Row | Compound | fold lower binding affinity for synMDMX than 15-29p53 [1] | shift of Trp fluorescence maximum on addition of synMDM2 (from-to) (synMDM2) | shift of Trp fluorescence on addition of synMDM2 (synMDM2; from 356 nm to 328 nm) [nm] | effect against SW480 (p53 mutated SW480 cells) | reduction in cell number (Trypan blue cell count) [2] | reduction in HCT116 cell count [2] | reduction in cell viability as measured by MTS OD [2]
1 | CC[C@H](C)[C@@H]1NC(=O)[C@@H]2CSSC[C@H](N)C(=O)N[C@@H](Cc3ccc(O)cc3)C(=O)N[C@@H](CO)C(=O)N[C@@H](Cc3ccccc3)C(=O)N[C@@H](CC(=O)O)C(=O)N[C@H]3CSSC[C@H](NC(=O)[C@H](CCCCN)NC(=O)[C@H](CO)NC(=O)[C@H](CC(N)=O)NC1=O)C(=O)N[C@@H](CCCCN)C(=O)N[C@H](C(=O)O)CSSC[C@H](NC(=O)[C@H](CCCCN)NC(=O)[C@H](Cc1c[nH]c4ccccc14)NC(=O)[C@H](CC(C)C)NC3=O)C(=O)N[C@@H](CC(C)C)C(=O)N[C@@H](C)C(=O)N[C@@H](CCSC)C(=O)NCC(=O)N[C@@H](Cc1ccccc1)C(=O)N[C@@H](CO)C(=O)N[C@@H](CO)C(=O)NCC(=O)N[C@@H](CCCCN)C(=O)N2 [stoppin-1] (H-CYSFDCLWKCLAMGFSSGKCINSKCKC-OH; disulfide 1-20, 6-25, 10-27) | approximately 4 fold | 356 nm to 328 nm | 28 | ineffective | minimal |  | 
2 | CYSFDCLWKCLAMGFRRGKCRRRKCKC [stoppin-2] |  | 356 nm to 328 nm |  | ineffective | ~70% | killed the cells quantitatively | reduction in HTC cell viability
3 | COc1ccc(C2=N[C@@H](c3ccc(Cl)cc3)[C@@H](c3ccc(Cl)cc3)N2C(=O)N2CCNC(=O)C2)c(OC(C)C)c1 [Nutlin-3, reference compound] |  |  |  | ineffective | over 80% | ~90% | reduction in HTC cell viability
